In one assay the test system is DU145 BP. Briefly: TUNEL assay of xenografted cancers. The format is in vivo, human. The conditions noted are these: DU145 BP clone containing TMEM135-CCDC67 breakpoint; FIG. 16B, treated with Ad-TC. On the procedure:
(§1) FIG. 16A-B. (A) Expression of Cas9^D10A and HSV1-tk in HUH7 or HEP3B tumors treated with Ad-TC or pAD5-Cas9^D10A-gRNAMAN2A1^int13-gRNAFER^int14/pAD-MAN2A1^int13-EGFP-tk-FER^int14 (Ad-MF). Green arrows indicate unstained mouse stromal cells. (B) Genome therapy induced apoptosis of xenografted cancers that contain fusion gene breakpoints. Terminal deoxynucleotidyl transferase (TdT) dUTP Nick-End Labeling (TUNEL) assays were performed on the PC3 BP, DU145 BP, PC3 CMV, DU145 CMV, or HUH7 xenografted cancers treated with either Ad-TC or Ad-MF.
(§2) Immunohistochemistry. Immunohistochemistry was performed as described previously 6 with antibodies specific for HSV-1 TK (1:100 dilution) or for Cas9 (1:100 dilution). The antibody was omitted in negative controls. The sections were then incubated with horseradish peroxidase conjugated anti-rabbit IgG for 30 minutes at room temperature (ABC kit from Vector Labs, Inc). Slides were then exposed to a 3,3′-diaminobenzidine solution to visualize immunostaining. Counterstaining was performed by incubating the slides in 1% Hematoxylin solution for 2 minutes at room temperature. The slides were then rinsed briefly in distilled water to remove excessive staining. The procedure of TUNEL assays is similar to that previously described (13).
On the technique in general: In xenograft studies the graft and the host belong to different species.

The test system of another assay is PC3 BP. Briefly: TUNEL assay of xenografted cancers. The assay is classed as in vivo, human. The conditions noted are these: PC3 BP clone containing TMEM135-CCDC67 breakpoint; FIG. 16B, treated with Ad-TC. On the procedure:
as §1, §2

This is an account of results in US11517629B2, “Methods of treating cells containing fusion genes by genomic targeting” (UNIVERSITY OF PITTSBURGH—OF THE COMMONWEALTH SYSTEM OF …, priority 2016, dated 2022).

As to `Nc1nc(O)c2ncn(COC(CO)CO)c2n1` [ganciclovir], the “cell death observed by tunel staining” value in the assay on DU145 BP and with PC3 BP was “significant cell death” throughout.
